Holding throughout (assay type): cell-based, human (healthy volunteers)
The subject of experiment [1] is resting platelets. Nature of the experiment: Platelet aggregation induced by peptide in resting washed platelets (activation). Particulars: for Activation: platelet aggregation in resting platelets after 6 minutes incubation with peptide, pal-peptides 20 μM, tat-peptides 50 μM, optical density, aggregometer, mean, n>=3; for Aggregation before TRAP activation, donor h: replicate donor h; for Aggregation before TRAP activation, donor h / Aggregation before TRAP activation, donor i / Aggregation before TRAP activation, donor j: pal 20 μM, tat 50 μM; for Aggregation before TRAP activation, donor i: replicate donor i; for Aggregation before TRAP activation, donor j: replicate donor j. In a few lines: (§1)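 Washed human platelets (from ACD blood, PGE1-treated) were used at 3x10^5/μl in buffer A pH 7.4 with 1.8 mM CaCl2. Light-transmission aggregometry ran at 37°C with stirring at 1100 rpm. Peptide or buffer was added at 2 min, TRAP 6 min later, and aggregation was recorded for a further 7 min.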

The test system of experiment [2] is TRAP-activated platelets. The experiment is described as follows: Inhibition of TRAP-induced platelet aggregation after pre-incubation with peptide. Particulars: for Aggregation after TRAP, peptide alone 1x (A 1x / B 1x) / Aggregation after TRAP, peptide alone 2x (A 2x / B 2x): TRAP 2 μM after 6 minutes pre-incubation, mean n = 3; for Aggregation after TRAP, peptide alone 1x (A 1x / B 1x): 4 μM pal-peptides, 10 μM tat-peptides; for Aggregation after TRAP, peptide alone 2x (A 2x / B 2x): double concentration of 4 μM (pal) / 10 μM (tat); for Aggregation after TRAP activation, donor h: replicate donor h; for Aggregation after TRAP activation, donor h / Aggregation after TRAP activation, donor i / Aggregation after TRAP activation, donor j: TRAP 4 μM, pal 20 μM, tat 50 μM; for Aggregation after TRAP activation, donor i: replicate donor i; for Aggregation after TRAP activation, donor j: replicate donor j. In a few lines:
as §1

The subject of experiment [3] is tyrosine phosphorylation in platelets. The experiment is described as follows: Phosphotyrosine western blot (4G10) of platelets treated with peptide. Details: key to Phospho: R: in resting platelets; A: after TRAP activation. Particulars: for Phospho: phosphorylation changes associated with peptide treatment, pal 20 μM, tat 50 μM, TRAP 4 μM. As for the experimental part: A platelet concentration of 3x10^5 /μl was used when performing standard aggregations and a concentration of 1x10^6 /μl was used for sample preparation for western blot analysis. The extent of platelet aggregation was measured by quantifying the optical density of the samples using the Bio-Data PAP-8 aggregometer (platelet aggregation profiler, Horsham, PA, USA). A temperature of 37°C was maintained and samples were stirred using magnets spinning at 1100 rpm. 200 μl of washed platelets was added to each aggregation tube. Different volumes of buffer, peptide and TRAP were added to achieve the desired concentrations. Peptide/buffer was added to each well after two minutes. TRAP, with a final concentration depending on the experiment, was added 6 minutes later and data was collected for an additional 7 minutes.
After the aggregation step, tubes were immediately placed on ice. 27 μl of lysis buffer was then added and the tube was vortexed vigorously. Lysates were left on ice for one hour and vortexed frequently. Proteins were then centrifuged at 14,000 rcf for 10 minutes to remove debris. Samples were then mixed with 2x sample buffer. 50 μl each sample was added to 50 μl of sample buffer. The protein was then denatured by heating to 95°C for 5 minutes. 10 μl of lysate was kept for protein quantification. All samples and lysates were frozen at -80°C.
The Bradford assay was then performed on the lysates to determine protein concentration. Protein concentrations were measured using the Bio-Rad DC Protein Assay. A calibration was created using samples containing a known concentration of bovine serum albumin. These were prepared in advance by sequential dilutions with final concentrations of 1.5mg/ml, 1mg/ml, 0.8mg/ml, 0.6mg/ml, 0.4mg/ml, 0.2mg/ml, 0mg/ml. Samples were then dispensed into a 96 well plate and the Bio-Rad DC reagents were added as described in the protocol. Samples were left to rest for 15 minutes and were then read using 690 0.15 mode on the Wallac plate reader. A standard curve was calculated from the standard samples of known concentration and the y = ax+b equation was used to determine the concentration of the other samples.
Sodium Dodecyl Sulfate Polyacrylamide Gel Electrophoresis (SDS-PAGE) was performed to separate proteins by molecular weight. Polyacrylamide gels were prepared (see Reagents section). Samples or molecular markers were loaded in volumes to give 20 μg of protein. The gels were then run for approximately 80 minutes or until the samples reached the end of the gel. The proteins were then transferred to polyvinylidene difluoride (PVDF) membranes using a Bio-Rad Wet Blot Transfer Cell apparatus. During the transfer the membranes were submerged in 1x transfer buffer (10% 10x transfer buffer, 70% deionised water and 20% methanol). Transfer was performed either overnight at 40 volts at 4°C, or at 100 volts for 1 hour cooled with an ice block. After the transfer the membranes were blocked for 1 hour using 3% bovine albumin serum (BSA) dissolved in TBS-T. Membranes were incubated with 4G10 antibody with a 1:1000 dilution. Unbound primary antibody was washed off with TBS-T three times for 5 minutes each. Membranes were then incubated with anti-mouse IgG secondary antibody (Millipore) with a dilution of 1:30,000. Membranes were submerged in chemiluminescence ECL solution (Thermo Scientific). They were then measured using the western blot developer UVP. One image was taken every 80 seconds for 40 minutes. Numeric data was extracted from selected blots using ImageJ.
For orientation: A western blot detects proteins with antibodies after separation by electrophoresis.

The mark [4] stands for this setting: platelet aggregation induced by 4 μM TRAP in platelets pre-incubated with peptide (low value = inhibition), pal-peptides 20 μM, tat-peptides 50 μM, mean, n>=3.

Marks after values point to notes of the source that are not given here.

“TLELDRLMASLSDFRVQNHLP-tat-(NH2) [TGFB1I1_LD-tat, TGFB1I1 LD motif peptide with C-terminal tat]” showed an Activation in experiment [1] (unit assumed) of 3%. In addition, in experiment [1], the “Aggregation before TRAP activation, donor h” value is listed as 3; the “Aggregation before TRAP activation, donor i” value was 4; the “Aggregation before TRAP activation, donor j” value amounted to 4. For the same substance, in experiment [2], the “Aggregation after TRAP, peptide alone 1x (A 1x / B 1x)” value (“Aggregation … (A 1x / B 1x)” for short) came out at 67.33; the “Aggregation after TRAP, peptide alone 2x (A 2x / B 2x)” value (from here on “Aggregation … (A 2x / B 2x)”) was 65.67; the “Aggregation after TRAP activation, donor h” value stood at 74; the “Aggregation after TRAP activation, donor i” value is 59. Further, in experiment [2], the “Aggregation after TRAP activation, donor j” value amounted to 67. In experiment [2] (setting [4]), the “Platelet aggregation remaining after TRAP (low = inhibition)” value worked out at 66. Besides, the Phospho result in experiment [3] is “R”.

In experiment [1] (S3 Table, peptide 5 μM, n=3, unit assumed), “pal-KVGFFKR-(NH2) [pal-ITGA2B_JM, N-terminally palmitylated ITGA2B juxtamembrane peptide KVGFFKR]” came in with an Activation, 5μM of 66%. Also, the Activation, 20μM in experiment [1] (S3 Table, peptide 20 μM, n=3, unit assumed) amounted to 62%. In experiment [1], the Activation is listed as 17 ^*; the “Aggregation before TRAP activation, donor h” value turned out to be 30; the “Aggregation before TRAP activation, donor i” value is 11; the “Aggregation before TRAP activation, donor j” value came to 12. The “Platelet aggregation remaining after TRAP (low = inhibition)” value in experiment [2] (S3 Table, peptide 5 μM, aggregation after TRAP, n=3) is on record as 73. For the same substance, in experiment [2] (S3 Table, peptide 20 μM, aggregation after TRAP, n=3), the “Platelet aggregation remaining after TRAP (low = inhibition)” value came to 69. Moreover, in experiment [2], the “Aggregation … (A 1x / B 1x)” value amounted to 37.33; the “Aggregation … (A 2x / B 2x)” value is recorded as 49.33; the “Aggregation after TRAP activation, donor h” value was found to be 52; the “Aggregation after TRAP activation, donor i” value was 36. For the same substance, in experiment [2], the “Aggregation after TRAP activation, donor j” value was determined as 64. Moreover, the “Platelet aggregation remaining after TRAP (low = inhibition)” value in experiment [2] (setting [4]) is reported as 50. Moreover, the Phospho result in experiment [3] was “R”.

As for “tat-DPMSSTYIEELGKREVTIPPKYRELLA-(NH2) [tat-CAST_1, tat peptide from calpastatin (CAST)]”, the Activation in experiment [1] (unit assumed) came out at 3%. Also, in experiment [1], the “Aggregation before TRAP activation, donor h” value was determined as 4; the “Aggregation before TRAP activation, donor i” value worked out at 4; the “Aggregation before TRAP activation, donor j” value is on record as 3. In experiment [2], the “Aggregation … (A 1x / B 1x)” value was 70.33; the “Aggregation … (A 2x / B 2x)” value amounted to 70.67; the “Aggregation after TRAP activation, donor h” value is given as 77; the “Aggregation after TRAP activation, donor i” value turned out to be 63. For the same substance, the “Aggregation after TRAP activation, donor j” value in experiment [2] came out at 76. Besides, in experiment [2] (setting [4]), the “Platelet aggregation remaining after TRAP (low = inhibition)” value is reported as 72. Also, the “Phosphotyrosine blot density, peptide + TRAP, Average” value in experiment [3] (average of 3 replicates, tat peptide 50 µM, TRAP 4 µM) worked out at 64.53. Further, the “Phosphorylation in resting platelets” value in experiment [3] (in words) is given as “no effect”. Further, in experiment [3] (in words, p = 0.03), the “Phosphorylation intensity of TRAP activated platelets” value is “increased the phosphorylation intensity”. Also, in experiment [3], the Phospho entry is “A”. Besides, the “relative density (peptide lane to activated control), replicate 1” value in experiment [3] (replicate 1) is given as 4.12. The “Phosphotyrosine blot density, peptide + TRAP, replicate 1” value in experiment [3] (replicate 1, tat peptide 50 µM, TRAP 4 µM) is 80. In experiment [3] (replicate 2), the “relative density (peptide lane to activated control), replicate 2” value came out at 1.42. Besides, the “Phosphotyrosine blot density, peptide + TRAP, replicate 2” value in experiment [3] (replicate 2, tat peptide 50 µM, TRAP 4 µM) was found to be 58.7. For the same substance, the “relative density (peptide lane to activated control), replicate 3” value in experiment [3] (replicate 3) came out at 1.22. The “Phosphotyrosine blot density, peptide + TRAP, replicate 3” value in experiment [3] (replicate 3, tat peptide 50 µM, TRAP 4 µM) was determined as 54.9.

In experiment [1] (unit assumed), “tat-SKPIGPDDAIDALSSDFTS-(NH2) [tat-CAST_2, tat peptide from calpastatin (CAST)]” yielded an Activation of 3%. In addition, in experiment [1], the “Aggregation before TRAP activation, donor h” value worked out at 3; the “Aggregation before TRAP activation, donor i” value is recorded as 4; the “Aggregation before TRAP activation, donor j” value amounted to 4. The “Platelet aggregation remaining after TRAP (low = inhibition)” value in experiment [2] (setting [4]) was 74. Further, in experiment [2], the “Aggregation after TRAP activation, donor h” value is on record as 78; the “Aggregation after TRAP activation, donor i” value amounted to 69; the “Aggregation after TRAP activation, donor j” value came out at 76.

Take “tat-SVSETDDpYAEIIDE-(NH2) [tat-FAK_2, tat peptide from PTK2/FAK1, phosphorylated tyrosine]”: the Activation in experiment [1] (unit assumed) stood at 3%. Moreover, in experiment [1], the “Aggregation before TRAP activation, donor h” value turned out to be 4; the “Aggregation before TRAP activation, donor i” value is recorded as 3; the “Aggregation before TRAP activation, donor j” value is reported as 4. Further, the “Platelet aggregation remaining after TRAP (low = inhibition)” value in experiment [2] (setting [4]) worked out at 71. For the same substance, in experiment [2], the “Aggregation after TRAP activation, donor h” value is reported as 77; the “Aggregation after TRAP activation, donor i” value is on record as 61; the “Aggregation after TRAP activation, donor j” value is 76.

Values taken from publication PMC6349357, “Computational and experimental analysis of bioactive peptide linear motifs in the integrin adhesome” (PLoS ONE, 2019).
